In PMC7464559, “Synthesis, Optimization, Antifungal Activity, Selectivity, and CYP51 Binding of New 2-Aryl-3-azolyl-1-indolyl-propan-2-ols” (Pharmaceuticals, 2020):
Converted amounts (≈) assume the structure as drawn.

Columns and labels:
[1] = molecular target: T1, retinoic acid 4-hydroxylase (CYP26A1) (Homo sapiens, UniProt O43174); assay: MCF-7 cellular assay for inhibition of metabolism of all-trans retinoic acid; format: cell-based; conditions: mean (±5%) of two experiments
T1 construct: endogenous in cells; host or cells: MCF-7 human breast cancer cells
T1 sequence (O43174 1-497): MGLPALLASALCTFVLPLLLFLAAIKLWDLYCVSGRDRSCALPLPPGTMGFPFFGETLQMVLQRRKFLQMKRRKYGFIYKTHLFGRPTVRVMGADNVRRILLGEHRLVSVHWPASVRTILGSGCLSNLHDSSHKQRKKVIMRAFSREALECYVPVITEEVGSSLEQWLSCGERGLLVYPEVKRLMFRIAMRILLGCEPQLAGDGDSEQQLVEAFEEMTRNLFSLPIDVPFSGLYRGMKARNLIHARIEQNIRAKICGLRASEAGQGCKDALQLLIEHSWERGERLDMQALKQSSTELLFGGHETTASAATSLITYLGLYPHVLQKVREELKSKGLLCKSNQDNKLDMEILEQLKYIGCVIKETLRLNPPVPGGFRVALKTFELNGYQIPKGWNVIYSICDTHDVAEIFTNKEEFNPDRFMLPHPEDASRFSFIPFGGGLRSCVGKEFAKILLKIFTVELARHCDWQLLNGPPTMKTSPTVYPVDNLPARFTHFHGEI
Method: The HPLC system was equipped with a high-pressure pump (Milton–Roy pump, Stone, UK), injector with a 50 μL loop connected to a beta-RAM radioactivity detector, connected to a Compaq™ computer running Laura® data acquisition and analysis software. This enabled online detection and quantification of radioactive peaks. The 10 μM C18 μBondapak™ 3.9 × 300 mm HPLC column (Waters, UK) was used for the all-trans retinoic acid metabolism studies. The HPLC column operating at an ambient temperature was used to separate the metabolites, which were eluted with acetonitrile/1% ammonium acetate in water/acetic acid (75:25:0.1, v/v/v) at a flow rate of 1.9 mL/min. The Ecoscint™ was used as the flow scintillation fluid.
The separated [^3H]-metabolites were quantitatively calculated from the areas under the curves.

[2] = MRC5 toxicity assay; format: cell-based, human; conditions: human, MRC-5 human fetal lung fibroblast cells, MRC-5 cells, 96-h incubation, mean of triplicate; read-out: Cytotoxicity IC50 on MRC-5 cells
Method: The cytotoxicity of compounds was studied with human fibroblast (MRC5). Cells were grown in RPMI 1640 medium (Sigma-Aldrich, Saint-Quentin Fallavier, France) supplemented with 10% fetal bovin serum (Sigma–Aldrich). Drugs were tested at three concentrations (100, 10, and 1 µM) in triplicate. After a 96-h incubation time, cytotoxicity was measured on the Fluorolite 1000 (Dynatech, Guyancourt, France) after a 4-h incubation time with Uptiblue® (Interchim, Montluçon, France). Inhibitory concentration 50 is a mean of triplicate values. A toxicity index was determined as follow: IC50 against MRC5/Geometric mean of the MICs against Candida spp..

[3] = system: C. krusei; assay: Anti-Candida in vitro assay, C. krusei strains; format: cell-based; conditions: Pichia kudriavzevii; span over the C. krusei strains tested
Method: Test fungal strains were obtained from the American Type Culture Collection (ATCC) or were clinical isolates from the Laboratory of Parasitology and Medical Mycology, Centre Hospitalier Universitaire (CHU) of Nantes. The strains were maintained on Sabouraud agar slants and were subcultured 24 h before used. The activity of the target compounds 8a–g and 11a–m was determined by the method previously described. Briefly, molecules were diluted in RPMI 1640 medium supplemented with 0.165 M morpholinopropanesulphonic acid (Sigma-Aldrich, Saint-Quentin Fallavier, France), 2% glucose, and antibiotics. Candida suspensions were prepared in RPMI 1640 medium (Sigma-Aldrich, Saint-Quentin Fallavier, France) adjusted to give a final concentration of 10^3 cells/mL, and a 96-well microplate (Nunc, D. Dutscher, Brumath, France) was seeded with 100 µL. Each concentration of molecules (100 µL) to be tested was added (in triplicate) and plates were incubated at 37 °C for 24 h. The cellular viability was evaluated on the Fluorolite 1000 (Dynatech, France) with an excitation at 550 nm and an emission at 590 nm after a 4 h incubation with 10 µL of Alamar Blue®. […] MIC was expressed as the mean of the triplicate values. KTC and FLC were used as standards.

[4] = system: human fetal lung fibroblast (MRC-5) cells; set-up: method as in PMID 31899979; conditions: previously determined ref 28, read-out: Cytotoxicity IC50 on MRC-5 cells; cited from earlier work

| SMILES | IC50 [1] | IC50 at 96 h [2] | MIC [3] | IC50 [4] | melting point |
| --- | --- | --- | --- | --- | --- |
| O[C@@](Cn1cncn1)(Cn1ccc2ccccc21)c1ccc(Cl)cc1Cl [(+)-(R)-8g] | 34 µM | 32 µM |  |  |  |
| O[C@](Cn1cncn1)(Cn1ccc2ccccc21)c1ccc(Cl)cc1Cl [(−)-(S)-8g] | 18 µM | 30 µM | 0.039 to 0.167 µg/mL (≈ 0.101 to 0.431 µM) |  |  |
| OC(Cn1cncn1)(Cn1ccc2ccccc21)c1ccc(Cl)cc1Cl (stereo not shown) [Compound 8g, 2-(2,4-Dichlorophenyl)-3-(1H-indol-1-yl)-1-(1H-1,2,4-triazol-1-yl)-propan-2-ol] |  |  |  | 35 µM | 161 to 162 °C |
